Measured values published in paper PMC11558998, “Lipophilic bisphosphonates reduced cyst burden and ameliorated hyperactivity of mice chronically infected with Toxoplasma gondii” (mBio, 2024).

Experiments:
[1] = tested on: in vitro differentiated Me49 bradyzoites (cysts); assay: Vacuole size of in vitro differentiated Me49 cysts (DBA/SAG1 IFA); type: cell-based, Toxoplasma gondii; conditions: 4 days, ambient CO2
Method: (§1) Type II Me49 or Pru was differentiated using compound 1 as previously described ([50]). Confluent HFF monolayers on glass coverslips (preincubated for 2 hours with 3 µM compound 1, as described previously) were infected with 5 × 10^3 tachyzoites of the ME49 or Pru (type 2) or EGS (type I/III) strain (no compound 1 for EGS). The cells were allowed to grow and differentiate in a 37°C incubator with ambient CO2 for 3 days (EGS was allowed to spontaneously differentiate for 4 days). […] After 7 days (Me49) or 8 days (EGS) of incubation, the cells were fixed with 3% paraformaldehyde for 10 minutes, permeabilized with 0.25% Triton X-100 for 10 minutes, and then blocked in 3% bovine serum albumin for 1 hour. The coverslips were then incubated in DBA rhodamine (for Me49)([51]) or DBA lectin (a kind gift from Diego Huet for EGS) and anti-SAG1 rat antibody (a kind gift from Vern Carruthers) for 2 hours. Then, the secondary anti-rat 488 was used to visualize the SAG1 antibody. The cells were then mounted onto microscope slides with fluoromount and DAPI (4′,6-diamidino-2-phenylindole). The slides were placed in the fridge for a minimum of 24 hours before imaging on a Delta Vision microscope. The vacuole sizes were calculated using ImageJ software.

[2] = tested on: in vitro derived Pru cysts; assay: Vacuole size of in vitro derived Pru cysts; type: cell-based, Toxoplasma gondii
Method: as §1

[3] = tested on: type I/III EGS strain cysts; assay: Vacuole size of spontaneously formed EGS cysts; type: cell-based, Toxoplasma gondii; conditions: EGS spontaneous cysts, 3x EC50, 4 days
Method: as §1

[4] = tested on: in vitro differentiated Me49 bradyzoites; assay: In vitro bradyzoite viability assay (plaques); type: cell-based, Toxoplasma gondii; conditions: Me49 bradyzoites treated 4 days at 3x and 5x EC50, then plaques 14 or 16 days, vs DMSO
Method: The protocol for in vitro viability assay was adapted from Zwicker et al. ([52]). Confluent HFF monolayers (preincubated for 2 hours with 3 µM compound 1) were infected with 5 × 10^3 tachyzoites of the ME49 (type 2) strain. After 24 hours, the compound 1 was removed to avoid toxicity to the host cells. The cells were allowed to grow and differentiate in a 37°C incubator with ambient CO2 for 3 days. […] After 7 days of differentiation, the cysts were collected by scraping the monolayers, syringe lysing the parasites, and treatment with acid/pepsin (170 mM sodium chloride, 60 mM hydrochloric acid, and 0.1 mg/mL pepsin) for 30 minutes in a 37°C water bath. The cysts were then neutralized with 94 mM sodium carbonate (Na2CO3) and enumerated. Ten thousand bradyzoites were plated per well in a six-well plate and allowed to grow undisturbed in a 37°C incubator with 5% CO2 for 14 or 16 days. At this time, cultures were fixed with 100% ethanol and stained with 2.5× crystal violet. The control DMSO plaque image is duplicated from Fig. 1E to be used as the representative image of plaques in Fig. 1D. Plaques were quantified using a light microscope using the 4× objective.

[5] = tested on: ex vivo bradyzoites of Me49-RFP from brains of chronically infected mice; assay: Ex vivo bradyzoite viability assay, Me49-RFP; type: cell-based, Toxoplasma gondii; conditions: inhibitors 4 hours then drug-free 14 days, 3x EC50
Method: (§2) Brains of chronically infected mice were collected, homogenized with seven strokes in a glass homogenizer, and then enumerated on a Delta Vision microscope [protocol adapted from reference ([45])]. Twenty-five cysts per plate were then placed in a tube for acid/pepsin (170 mM sodium chloride, 60 mM hydrochloric acid, and 0.1 mg/mL pepsin) treatment for 10 minutes in a 37°C water bath. The cysts were then neutralized with 94 mM Na2CO3. The liberated bradyzoites were then equally distributed into a 12-well plate. For the growth assay, the cells were grown in the presence of compounds or DMSO for 12 and 14 days undisturbed. For the viability assays, the cells were treated with compounds or DMSO for 4 hours before being washed with 1× PBS and then grown for 12 and 14 days in media without compounds. After 12 and 14 days, the cells were fixed with 100% ethanol and stained with 2.5× crystal violet. The control DMSO plaque image is duplicated from Fig. 2B to be used as the representative image of plaques in Fig. 2A. Plaques were quantified on a light microscope using the 4× objective and the size of the plaques was measured using Fiji (ImageJ) software.

[6] = tested on: ex vivo bradyzoites of the Pru strain from chronically infected mice; assay: Ex vivo bradyzoite growth assay, Pru; type: cell-based, Toxoplasma gondii; conditions: 3x EC50
Method: as §2

[7] = tested on: ex vivo bradyzoites of the Pru strain from chronically infected mice; assay: Ex vivo bradyzoite viability assay, Pru; type: cell-based, Toxoplasma gondii; conditions: 3x EC50
Method: as §2

[8] = tested on: Me49-RFP brain tissue cysts in Swiss Webster mice; assay: Treatment of Swiss Webster mice chronically infected with Me49-RFP; type: in vivo, Toxoplasma gondii; conditions: Swiss Webster mice, 5,000 Me49-RFP i.p., BPH-1218 at 1 mg/kg daily for 16 days
[9] = tested on: RH-RFP tachyzoites in Swiss Webster mice; conditions: RH parasites; cited from earlier work
[10] = tested on: Pru-GFP brain tissue cysts in Balb/c mice; assay: Treatment of Balb/c mice chronically infected with Pru-GFP; conditions: Balb/c mice, 1,500 Pru-GFP i.p., 1 mg/kg/day i.p. for 16 days from 28 dpi
Method: BALB/c male mice (Jackson Laboratory) were injected i.p. with a 200 µL suspension of 1,500 tachyzoites of the Pru-GFP strain T. gondii (type II genotype) (a gift from Laura Knoll). […] At 4 weeks post-infection, the brains of two mice were collected to check for the presence of cysts and to confirm that the mice were in the chronic stage. At this time, the remaining mice were injected i.p. daily for 16 consecutive days with 200 µL solvent (10% Kolliphor HS-15) or compounds dissolved in 10% HS-15. […] Mice were euthanized humanely 2 weeks after the final injection. The mouse brains were collected in 1 mL sterile PBS, minced with scissors, and homogenized using a glass homogenizer. Four 20 µL samples (80 µL total or 8% of sample) of each brain homogenate were placed on a glass microscope slide. Cysts were enumerated using a Delta Vision fluorescence microscope.

[11] = tested on: hyperactivity of Balb/c mice chronically infected with Pru-GFP; assay: CageDot continuous monitoring of mouse activity during chronic infection; conditions: 1 mg/kg/day i.p. 16 days, 15 dpt and 2 wpt
Method: At this time, the remaining mice were injected i.p. daily for 16 consecutive days with 200 µL solvent (10% Kolliphor HS-15) or compounds dissolved in 10% HS-15. […] Mice were euthanized humanely 2 weeks after the final injection.
Mice were monitored during the infection using the CageDot ([30], [31]), which detects vibrations. […] Data are collected at a 100 Hz sampling rate (each second, 100 data points were collected).

[12] = tested on: RH-RFP tachyzoites in Swiss Webster mice; assay: Mice infected with a lethal dose of T. gondii (acute infection); type: in vivo, Toxoplasma gondii; conditions: 100 RH-RFP tachyzoites i.p., daily i.p. treatment for 10 days starting 6 hours after infection
Method: Experiments were carried out as described previously ([16]) using 100 T. gondii tachyzoites of the RH td-Tomato strain (RH-RFP) to infect female Swiss Webster mice. Drugs were dissolved in 10% Kolliphor HS-15 and were inoculated i.p. starting 6 hours after infection and administered for 10 days. The survival of mice was monitored along with their weight. Mice were sacrificed if they lost over 20% of their body weight. Surviving mice were challenged on day 30 post-infection with 10,000 RH-RFP tachyzoites. Blood was collected at 30 dpi (before challenge) and at the time of euthanasia (3 weeks post challenge) to analyze the presence of T. gondii antibodies. To test for antibodies, we ran a western blot with RH-RFP lysate protein and probed the membrane with the serum collected from the mice. Protein extraction and western blot conditions were as done previously ([20]). After blocking with 5% milk in PBS-T (0.1% Tween 20 in phosphate buffered saline [PBS]), we washed the membrane three times for 5 minutes with PBS-T and attached it to the BioRad multiscreen tool. The RH-RFP lysate was ran throughout the whole gel to allow for testing of different serum (antibodies) on the same membrane. […]

T. gondii = tested on: T. gondii; design: method as in PMID 17069459; conditions: cited from earlier work

| SMILES | vacuole size ([1]; 3x EC50 against tachyzoites) | vacuole size ([1]; 5x EC50 against tachyzoites) | vacuole size [2] | size of the vacuoles (cysts) [3] | number of plaques (bradyzoite viability) [4] | number of plaques, ex vivo viability [5] | number of plaques, ex vivo growth [6] | number of plaques, ex vivo viability [7] | reduction of cyst burden [8] [%] | protection against lethal acute infection [9] | reduction of cyst burden [10] [%] | activity of infected mice (nightly average energy, CageDot) [11] | protection against lethal acute infection (survival) [12] | induction of bradyzoite-specific antigen 1 (T. gondii) | replication of T. gondii (T. gondii) |
| --- | --- | --- | --- | --- | --- | --- | --- | --- | --- | --- | --- | --- | --- | --- | --- |
| CCCCCCCCCCn1cc[n+](CC(P(=O)([O-])O)P(=O)(O)O)c1 (stereo not drawn) [BPH-1218] | showed the same effect on vacuole size | diminished vacuole size | decreased the vacuole size | reduced the size of the vacuoles | plaque number was significantly reduced | reduced the viability of ex vivo bradyzoites | significant reduction in the number of plaques | significant reduction in the number of plaques | 73.6 | protected mice against a lethal acute infection | 74.0 | decreased the activity of the infected mice to similar levels of the control uninfected mice |  |  |  |
| CCCCCCCCCCCn1cc[n+](CC(O)(P(=O)([O-])O)P(=O)(O)O)c1 (stereo not drawn) [BPH-1236] |  | diminished vacuole size |  | reduced the size of the vacuoles | plaque number was significantly reduced | reduced the viability of ex vivo bradyzoites | significant reduction in the number of plaques | significant reduction in the number of plaques |  |  |  |  | protected mice against the acute infection |  |  |
| CCCCCCCCCn1cc[n+](CC(O)(P(=O)([O-])O)P(=O)(O)O)c1 (stereo not drawn) [BPH-1238] |  | diminished vacuole size |  | reduced the size of the vacuoles | plaque number was significantly reduced | reduced the viability of ex vivo bradyzoites | significant reduction in the number of plaques | significant reduction in the number of plaques |  |  |  |  |  |  |  |
| CN1CCC(c2cc(-c3ccncc3)c(-c3ccc(F)cc3)[nH]2)CC1 [Compound 1, 4-[2-(4-fluorophenyl)-5-(1-methylpiperidine-4-yl)-1H-pyrrol-3-yl]pyridine] |  |  |  |  |  |  |  |  |  |  |  |  |  | potent inducer of bradyzoite-specific antigen 1 | dramatically slow the replication |
